These results are taken from patent US11713338B2, “Cyclic peptides multimers targeting α-4-β-7 integrin” (priority 2016, dated 2023).

The target of assay [1] is T1, integrin α4β1 (RAMOS human cells adhering to VCAM-1) (Homo sapiens, UniProt P05556+P13612).
T1 construct: Ramos cells, which express integrin α4β1; host or cells: RAMOS
Briefly: Integrin α4β1-VCAM cell adhesion assay (RAMOS cells). In kind it is cell-based. On the procedure:
Integrin α4β1-VCAM Cell Adhesion Assay
The plate was incubated overnight at 4° C. and washed twice with 150 μl per well wash buffer (0.05% Tween 20 in PBS), blocked with 250 μl per well blocking buffer (1% non-fat dry milk in PBS), for 1 hour at room temperature. During blocking step, RAMOS cells were resuspended at 10 million cells/ml in PBS containing […] and incubated at 37° C. for 30 min in a 50 ml tube. […] The plate was emptied by inverting and blotting on paper towels and washed manually twice with PBS. […] To calculate the dose response, the fluorescence value of control wells not containing cells was subtracted from each test well.

The target of assay [2] is T2, recombinant integrin α4β7 (Homo sapiens, UniProt P13612+P26010, DEL724-798).
T2 construct: purchased R&D Systems 5397-A3-050
T2 sequence (P13612 34-970 limits assumed): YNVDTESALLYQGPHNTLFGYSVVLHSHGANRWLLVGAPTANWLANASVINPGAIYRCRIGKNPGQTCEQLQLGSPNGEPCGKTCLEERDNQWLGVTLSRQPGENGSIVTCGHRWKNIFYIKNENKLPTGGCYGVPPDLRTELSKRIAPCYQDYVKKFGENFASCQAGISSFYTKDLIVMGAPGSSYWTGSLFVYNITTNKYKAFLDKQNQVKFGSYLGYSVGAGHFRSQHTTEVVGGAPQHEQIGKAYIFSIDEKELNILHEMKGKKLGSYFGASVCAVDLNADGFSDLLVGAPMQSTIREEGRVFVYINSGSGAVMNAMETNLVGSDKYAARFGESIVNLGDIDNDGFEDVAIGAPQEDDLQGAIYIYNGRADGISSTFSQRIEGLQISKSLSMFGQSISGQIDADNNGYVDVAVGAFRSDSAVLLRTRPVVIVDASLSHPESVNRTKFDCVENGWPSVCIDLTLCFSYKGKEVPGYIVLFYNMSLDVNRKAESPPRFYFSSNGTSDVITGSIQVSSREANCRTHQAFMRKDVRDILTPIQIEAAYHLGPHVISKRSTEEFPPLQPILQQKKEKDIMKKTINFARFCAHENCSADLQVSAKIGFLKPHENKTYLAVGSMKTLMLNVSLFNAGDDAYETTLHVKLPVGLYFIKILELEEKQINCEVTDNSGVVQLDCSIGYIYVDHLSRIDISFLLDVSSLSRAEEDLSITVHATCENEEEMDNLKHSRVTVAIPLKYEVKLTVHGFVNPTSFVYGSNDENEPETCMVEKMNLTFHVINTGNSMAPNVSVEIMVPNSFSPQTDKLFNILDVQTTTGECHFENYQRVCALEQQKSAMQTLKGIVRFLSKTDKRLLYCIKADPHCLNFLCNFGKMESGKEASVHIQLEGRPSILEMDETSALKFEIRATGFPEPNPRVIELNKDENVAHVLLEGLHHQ
T2 sequence (P26010 20-723 limits assumed): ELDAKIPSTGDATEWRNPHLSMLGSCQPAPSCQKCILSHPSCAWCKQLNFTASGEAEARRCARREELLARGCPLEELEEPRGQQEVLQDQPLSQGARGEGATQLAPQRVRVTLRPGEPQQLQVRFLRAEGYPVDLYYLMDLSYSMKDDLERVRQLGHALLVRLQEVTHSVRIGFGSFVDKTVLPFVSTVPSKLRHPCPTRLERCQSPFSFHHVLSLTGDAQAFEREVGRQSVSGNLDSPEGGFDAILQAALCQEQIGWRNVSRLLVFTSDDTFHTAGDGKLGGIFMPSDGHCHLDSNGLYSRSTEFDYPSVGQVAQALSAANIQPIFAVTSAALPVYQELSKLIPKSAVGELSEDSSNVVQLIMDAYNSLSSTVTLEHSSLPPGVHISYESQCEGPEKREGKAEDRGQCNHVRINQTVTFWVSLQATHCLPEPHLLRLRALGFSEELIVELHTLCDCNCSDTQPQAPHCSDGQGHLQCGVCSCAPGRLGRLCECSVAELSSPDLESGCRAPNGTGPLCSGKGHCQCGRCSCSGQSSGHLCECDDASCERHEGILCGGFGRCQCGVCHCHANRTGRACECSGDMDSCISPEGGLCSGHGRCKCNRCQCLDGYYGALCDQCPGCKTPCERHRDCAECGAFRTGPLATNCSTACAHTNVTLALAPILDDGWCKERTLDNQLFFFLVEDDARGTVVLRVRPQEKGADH
In words: Integrin α4β7—MAdCAM-1 ELISA competition assay. As to conditions: read-out: ELISA α4β7 Assay IC50. In kind it is binding. (ELISA stands for enzyme-linked immunosorbent assay.)
Description: Integrin α4β7—MAdCAM-1 ELISA Competition Assay
The plate was incubated at 40C overnight. […] The plate was then incubated for 1 hour at room temperature. The plate was washed three times with wash buffer (50 mM Tris, 100 mM NaCl, 1 mM MnCl2, 0.05% Tween). To each well, 50 μl of compound diluted in assay buffer was added by transfer from a compound serial dilution plate. […] The plate was incubated at room temperature with shaking (300 rpm) for 2 hours to reach binding equilibrium. […] The plate was incubated at room temperature for 1 hour under agitation.

Assay [3] addresses T3, recombinant integrin α4β1 (Homo sapiens, UniProt P05556+P13612).
T3 construct: purchased R&D Systems 5397-A3-050
Briefly: Integrin α4β1—VCAM-1 competition ELISA. In kind it is binding. The note with it: for ELISA Assay Ratio β1/β7: ratio of ELISA IC50s, α4β1 over α4β7; for IC50: read-out: ELISA α4β1 Assay IC50. The essentials: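 Compound dilutions added to coated plate and shaken at room temperature for 2 h (300 rpm) to binding equilibrium. Wash buffer: 50 mM Tris, 100 mM NaCl, 1 mM MnCl2, 0.05% Tween. Bound Fc-tagged ligand detected with anti-human IgG Fc-HRP, 1 h at room temperature.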

The mark [4] stands for this setting: Ramos cells adhering to VCAM, read-out: Ramos Adhesion α4β1/VCAM IC50.
Setting [5] is: ratio of cell adhesion IC50s, Ramos α4β1/VCAM over RPMI8866 α4β7/MAdCAM.

Each structure is given as a SMILES string. Where two headings read alike, the source gives them in different places.

T1 sequence (P13612 34-1032): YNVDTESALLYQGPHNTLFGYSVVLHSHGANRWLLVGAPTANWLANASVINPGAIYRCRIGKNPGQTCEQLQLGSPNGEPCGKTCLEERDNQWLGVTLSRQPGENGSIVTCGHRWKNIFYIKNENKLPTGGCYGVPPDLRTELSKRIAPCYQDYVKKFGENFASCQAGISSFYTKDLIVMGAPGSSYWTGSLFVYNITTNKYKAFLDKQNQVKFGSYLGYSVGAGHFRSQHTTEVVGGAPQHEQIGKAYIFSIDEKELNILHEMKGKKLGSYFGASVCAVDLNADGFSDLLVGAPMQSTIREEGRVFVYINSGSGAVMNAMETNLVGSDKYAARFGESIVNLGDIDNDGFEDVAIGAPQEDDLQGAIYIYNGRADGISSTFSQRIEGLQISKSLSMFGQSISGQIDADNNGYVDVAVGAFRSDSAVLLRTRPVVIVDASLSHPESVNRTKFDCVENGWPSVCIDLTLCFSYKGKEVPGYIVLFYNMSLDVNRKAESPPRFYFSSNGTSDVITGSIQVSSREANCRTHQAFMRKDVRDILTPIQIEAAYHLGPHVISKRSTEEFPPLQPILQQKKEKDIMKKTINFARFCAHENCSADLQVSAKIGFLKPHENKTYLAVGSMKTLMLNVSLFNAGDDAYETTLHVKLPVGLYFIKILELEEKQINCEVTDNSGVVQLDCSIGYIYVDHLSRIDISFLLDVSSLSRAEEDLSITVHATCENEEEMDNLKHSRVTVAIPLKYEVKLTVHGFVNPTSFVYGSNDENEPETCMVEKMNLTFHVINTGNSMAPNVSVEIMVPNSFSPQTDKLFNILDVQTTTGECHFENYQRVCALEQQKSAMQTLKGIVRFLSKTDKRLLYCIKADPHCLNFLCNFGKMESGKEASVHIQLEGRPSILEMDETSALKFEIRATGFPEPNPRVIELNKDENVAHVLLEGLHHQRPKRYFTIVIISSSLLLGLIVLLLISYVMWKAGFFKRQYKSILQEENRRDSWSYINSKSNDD
T1 sequence (P05556 21-798): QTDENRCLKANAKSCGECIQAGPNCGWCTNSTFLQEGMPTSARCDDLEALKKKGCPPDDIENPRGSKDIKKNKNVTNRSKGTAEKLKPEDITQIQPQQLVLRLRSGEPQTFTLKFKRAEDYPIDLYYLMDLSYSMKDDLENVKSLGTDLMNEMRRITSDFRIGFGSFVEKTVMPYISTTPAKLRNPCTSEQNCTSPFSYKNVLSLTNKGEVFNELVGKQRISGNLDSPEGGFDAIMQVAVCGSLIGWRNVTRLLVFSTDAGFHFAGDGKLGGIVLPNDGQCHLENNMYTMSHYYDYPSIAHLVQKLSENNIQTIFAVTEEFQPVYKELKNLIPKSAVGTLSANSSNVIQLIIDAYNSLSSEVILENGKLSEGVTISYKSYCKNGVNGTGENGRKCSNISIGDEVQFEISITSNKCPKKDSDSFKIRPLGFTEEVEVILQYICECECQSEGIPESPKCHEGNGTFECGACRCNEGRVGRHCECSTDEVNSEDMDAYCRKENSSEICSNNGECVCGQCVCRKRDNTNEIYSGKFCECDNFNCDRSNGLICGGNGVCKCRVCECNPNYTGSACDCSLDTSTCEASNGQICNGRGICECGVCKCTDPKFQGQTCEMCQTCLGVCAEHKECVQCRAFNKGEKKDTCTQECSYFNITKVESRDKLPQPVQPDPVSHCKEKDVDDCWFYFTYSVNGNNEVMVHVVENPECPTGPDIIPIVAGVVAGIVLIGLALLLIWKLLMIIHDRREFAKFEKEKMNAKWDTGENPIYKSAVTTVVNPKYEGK
T3 sequence (P05556 21-728 limits assumed, one chain of several): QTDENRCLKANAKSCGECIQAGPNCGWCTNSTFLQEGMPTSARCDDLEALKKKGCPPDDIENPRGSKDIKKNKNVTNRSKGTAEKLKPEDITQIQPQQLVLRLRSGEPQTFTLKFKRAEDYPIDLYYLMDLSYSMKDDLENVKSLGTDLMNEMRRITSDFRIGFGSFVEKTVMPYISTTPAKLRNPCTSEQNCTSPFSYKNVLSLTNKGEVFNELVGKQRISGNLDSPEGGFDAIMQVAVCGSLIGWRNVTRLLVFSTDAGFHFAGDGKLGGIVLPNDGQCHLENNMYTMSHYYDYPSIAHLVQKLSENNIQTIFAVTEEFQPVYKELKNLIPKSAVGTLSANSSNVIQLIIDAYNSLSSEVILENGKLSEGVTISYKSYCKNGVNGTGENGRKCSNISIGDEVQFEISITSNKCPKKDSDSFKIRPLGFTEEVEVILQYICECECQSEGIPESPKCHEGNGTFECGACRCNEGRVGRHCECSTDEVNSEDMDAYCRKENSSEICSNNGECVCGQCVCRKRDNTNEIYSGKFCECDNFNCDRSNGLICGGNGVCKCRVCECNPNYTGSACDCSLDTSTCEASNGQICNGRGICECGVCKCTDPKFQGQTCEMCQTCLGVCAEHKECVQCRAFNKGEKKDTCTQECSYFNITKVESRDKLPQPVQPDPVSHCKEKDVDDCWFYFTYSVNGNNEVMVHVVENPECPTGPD

Regarding `CC(C)C[C@@H]1NC(=O)c2ccc(-c3ccc(N4CCN(C(=O)COCC(=O)N5CCN(c6ccc(-c7ccc8cc7CNC(=O)[C@@H]7CCCN7[C@H](C(=O)NC(C)(C)C)[C@H](C)NC(=O)[C@H]([C@@H](C)O)NC(=O)[C@H](CC(=O)O)NC(=O)[C@H](CC(C)C)NC8=O)cc6)CC5)CC4)cc3)c(c2)CNC(=O)[C@@H]2CCCN2[C@H](C(=O)NC(C)(C)C)[C@H](C)NC(=O)[C@H]([C@@H](C)O)NC(=O)[C@H](CC(=O)O)NC1=O` [Compound 390], the IC50 was 857 nM in assay [1] (setting [4]), 8.3 nM in assay [2] and 2 nM in assay [3]. Further, the “Ratio Ramos/RPMI” value in assay [1] (setting [5]) worked out at 66. For the same molecule, the “ELISA Assay Ratio β1/β7” value in assay [3] is on record as 0.2.
Consider `CC(C)C[C@@H]1NC(=O)c2ccc(-c3ccc(N4CCN(C(=O)CCCCCCCCCCC(=O)N5CCN(c6ccc(-c7ccc8cc7CNC(=O)[C@@H]7CCCN7[C@H](C(=O)NC(C)(C)C)[C@H](C)NC(=O)[C@H]([C@@H](C)O)NC(=O)[C@H](CC(=O)O)NC(=O)[C@H](CC(C)C)NC8=O)cc6)CC5)CC4)cc3)c(c2)CNC(=O)[C@@H]2CCCN2[C@H](C(=O)NC(C)(C)C)[C@H](C)NC(=O)[C@H]([C@@H](C)O)NC(=O)[C@H](CC(=O)O)NC1=O` [Compound 392], for which the figures for the IC50 in assay [1] (setting [4]), in assay [2] and in assay [3] were 1840 nM, 18 nM and 6.3 nM, respectively. Also, the “Ratio Ramos/RPMI” value in assay [1] (setting [5]) came to 65. Moreover, in assay [3], the “ELISA Assay Ratio β1/β7” value is recorded as 0.3.
For `CC(C)C[C@@H]1NC(=O)C[C@H](CCCCN)N(C)C(=O)[C@H](CCCCN)NC(=O)[C@@H]2CCCN2[C@H](C(=O)NC(C)(C)C)[C@H](C)NC(=O)[C@H]([C@@H](C)O)NC(=O)[C@H](CC(=O)O)NC1=O` [Compound 456], the “selectivity α4β7 versus α4β1 cell adhesion assays” value in assay [1] (RPMI8866 vs Ramos cell adhesion) is on record as 45 fold. In assay [1] (Ramos cells, VCAM, read-out: Ramos Adhesion a4b1/VCAM IC50), the IC50 turned out to be 8920 nM. Also, in assay [1] (ratio of Ramos a4b1/VCAM adhesion IC50 to RPMI8866 a4b7/MAdCAM adhesion IC50), the “Ratio Ramos/RPMI” value is recorded as 45. The “ELISA Assay Ratio b1/b7” value in assay [3] (ratio of ELISA IC50 b1 to b7) is on record as 1.5.
Consider `CC(C)C[C@@H]1NC(=O)c2ccc(-c3ccc(N4CCN(C(=O)[C@H]5CCC[C@H]5C(=O)N5CCN(c6ccc(-c7ccc8cc7CNC(=O)[C@@H]7CCCN7[C@H](C(=O)NC(C)(C)C)[C@H](C)NC(=O)[C@H]([C@@H](C)O)NC(=O)[C@H](CC(=O)O)NC(=O)[C@H](CC(C)C)NC8=O)cc6)CC5)CC4)cc3)c(c2)CNC(=O)[C@@H]2CCCN2[C@H](C(=O)NC(C)(C)C)[C@H](C)NC(=O)[C@H]([C@@H](C)O)NC(=O)[C@H](CC(=O)O)NC1=O` [Compound 458], for which the IC50 in assay [1] (setting [4]) is 990 nM; in assay [2], 6.4 nM; in assay [3] it was 1.5 nM. In assay [1] (setting [5]), the “Ratio Ramos/RPMI” value was found to be 23. In assay [3], the “ELISA Assay Ratio β1/β7” value stood at 0.2.
With `CC(C)C[C@@H]1NC(=O)c2ccc(-c3ccc(N4CCN(C(=O)C56CC7CC(C5)CC(C(=O)N5CCN(c8ccc(-c9ccc%10cc9CNC(=O)[C@@H]9CCCN9[C@H](C(=O)NC(C)(C)C)[C@H](C)NC(=O)[C@H]([C@@H](C)O)NC(=O)[C@H](CC(=O)O)NC(=O)[C@H](CC(C)C)NC%10=O)cc8)CC5)(C7)C6)CC4)cc3)c(c2)CNC(=O)[C@@H]2CCCN2[C@H](C(=O)NC(C)(C)C)[C@H](C)NC(=O)[C@H]([C@@H](C)O)NC(=O)[C@H](CC(=O)O)NC1=O` [Compound 460], the figures for the IC50 in assay [1] (setting [4]), in assay [2] and in assay [3] were 1850 nM, 14 nM and 1 nM, respectively. Besides, the “Ratio Ramos/RPMI” value in assay [1] (setting [5]) turned out to be 30. Besides, in assay [3], the “ELISA Assay Ratio β1/β7” value was found to be 0.1.
Take `CC(C)C[C@@H]1NC(=O)c2ccc(-c3ccc(N4CCN(C(=O)c5cc(F)ccc5-c5ccc(F)cc5C(=O)N5CCN(c6ccc(-c7ccc8cc7CNC(=O)[C@@H]7CCCN7[C@H](C(=O)NC(C)(C)C)[C@H](C)NC(=O)[C@H]([C@@H](C)O)NC(=O)[C@H](CC(=O)O)NC(=O)[C@H](CC(C)C)NC8=O)cc6)CC5)CC4)cc3)c(c2)CNC(=O)[C@@H]2CCCN2[C@H](C(=O)NC(C)(C)C)[C@H](C)NC(=O)[C@H]([C@@H](C)O)NC(=O)[C@H](CC(=O)O)NC1=O` [Compound 475]: the IC50 worked out at 11 nM in assay [2] and 1.1 nM in assay [3].
Take `CC(C)C[C@@H]1NC(=O)c2ccc(-c3ccc(N4CCN(CCC(=O)N5CCN(c6ccc(-c7ccc8cc7CNC(=O)[C@@H]7CCCN7[C@H](C(=O)NC(C)(C)C)[C@H](C)NC(=O)[C@H]([C@@H](C)O)NC(=O)[C@H](CC(=O)O)NC(=O)[C@H](CC(C)C)NC8=O)cc6)CC5)CC4)cc3)c(c2)CNC(=O)[C@@H]2CCCN2[C@H](C(=O)NC(C)(C)C)[C@H](C)NC(=O)[C@H]([C@@H](C)O)NC(=O)[C@H](CC(=O)O)NC1=O` [Compound 482]: the IC50 in assay [1] (setting [4]) came to 825 nM; in assay [3] it was 1.5 nM.
For the molecule `CC(C)C[C@@H]1NC(=O)c2ccc(-c3ccc(N4CCN(C(=O)CCC(=O)N5CCN(c6ccc(-c7ccc8cc7CNC(=O)[C@@H]7CCCN7[C@H](C(=O)NC(C)(C)C)[C@H](C)NC(=O)[C@H]([C@@H](C)O)NC(=O)[C@H](CC(=O)O)NC(=O)[C@H](CC(C)C)NC8=O)cc6)CC5)CC4)cc3)c(c2)CNC(=O)[C@@H]2CCCN2[C@H](C(=O)NC(C)(C)C)[C@H](C)NC(=O)[C@H]([C@@H](C)O)NC(=O)[C@H](CC(=O)O)NC1=O` [Compound 484], the IC50 in assay [2] amounted to 5.6 nM; in assay [3], 1.2 nM.
Turning to `CC(C)C[C@@H]1NC(=O)c2ccc(-c3ccc(N4CCN(C(=O)c5ccccc5-c5ccccc5C(=O)N5CCN(c6ccc(-c7ccc8cc7CNC(=O)[C@@H]7CCCN7[C@H](C(=O)NC(C)(C)C)[C@H](C)NC(=O)[C@H]([C@@H](C)O)NC(=O)[C@H](CC(=O)O)NC(=O)[C@H](CC(C)C)NC8=O)cc6)CC5)CC4)cc3)c(c2)CNC(=O)[C@@H]2CCCN2[C@H](C(=O)NC(C)(C)C)[C@H](C)NC(=O)[C@H]([C@@H](C)O)NC(=O)[C@H](CC(=O)O)NC1=O` [Compound 517], the results for the IC50 in assay [2] and in assay [3] were 7.5 nM and 2.1 nM, respectively.
As to `CC(C)C[C@@H]1NC(=O)c2ccc(-c3ccc(N4CCN(C(=O)c5cc(C(=O)N6CCN(c7ccc(-c8ccc9cc8CNC(=O)[C@@H]8CCCN8[C@H](C(=O)NC(C)(C)C)[C@H](C)NC(=O)[C@H]([C@@H](C)O)NC(=O)[C@H](CC(=O)O)NC(=O)[C@H](CC(C)C)NC9=O)cc7)CC6)cc(C(=O)N6CCN(c7ccc(-c8ccc9cc8CNC(=O)[C@@H]8CCCN8[C@H](C(=O)NC(C)(C)C)[C@H](C)NC(=O)[C@H]([C@@H](C)O)NC(=O)[C@H](CC(=O)O)NC(=O)[C@H](CC(C)C)NC9=O)cc7)CC6)c5)CC4)cc3)c(c2)CNC(=O)[C@@H]2CCCN2[C@H](C(=O)NC(C)(C)C)[C@H](C)NC(=O)[C@H]([C@@H](C)O)NC(=O)[C@H](CC(=O)O)NC1=O` [Compound 520], the IC50 in assay [2] turned out to be 6.3 nM; in assay [3], 1.2 nM.
